Values of other authors, collected in patent US20260144779A1, “MODIFIED RELEASE PHARMACEUTICAL FORMULATIONS COMPRISING DEFERIPRONE” (CHIESI FARMACEUTICI S.P.A., priority 2022, published 2026).

Conditions: in vivo

Cc1c(O)c(=O)ccn1C [Deferiprone, 3-hydroxy-1,2-dimethylpyridin-4-one]
Half-life: 2 to 3 h
